From patent US20070105114A1, “Biomarkers of cyclin-dependent kinase modulation” (priority 2003, published 2007)
pIC50: −log10 of the molar value. Where a name gives a salt, the structure may show the parent alone. Read-outs that look alike come from different tables or passages of the source.

Columns and labels:
[1] = system: A2780 ovarian carcinoma cells; test: Clonogenic growth assay (colony formation); format: cell-based, human; settings: for pIC50 / IC90: Homo sapiens, A2780, A2780s Clonogenic assay; for pIC50: read-out: IC50, inhibition of colony formation; for IC90: read-out: IC90, inhibition of colony formation
Method: Clonogenic Growth Assay: The colony growth inhibition was measured for the A2780 ovarian carcinoma cells using a standard clonogenic assay. In this assay, 200 cells/well were seeded into 6-well tissue culture plates (Falcon™) (Becton, Dickinson and Company, Franklin Lakes, N.J., USA) and allowed to attach for 18 hours. Assay medium consisted of RPMI-1640 plus 10% fetal bovine serum. Cells were then treated in duplicate with a six concentration dose-response curve. The maximum concentration of DMSO never exceeded 0.25%. Cells were exposed to the cdk2 inhibitor for 4, 8, or 24 hours. The cdk2 inhibitor was then removed and the cells were washed with 2 volumes of PBS. The normal growth medium was then replaced. Colonies were fed with fresh media every third day. Colony number was scored on day 10-14 using a Optimax imaging station. The cdk2 inhibitor concentration required to inhibit 50% or 90% of colony formation (IC50 or IC90, respectively) was determined by non-linear regression analysis. The coefficient of variance (standard deviation/mean, n=3)=30%. Treatment of A2780 and PBMC was carried out as described above. The doses of the cdk2 inhibitor were derived from an understanding of the kinetics of tumor cell growth inhibition by the cdk2 inhibitor as assessed by proliferation and clonogenic assays (Table 3). […] A minimal exposure of 8 hours was required for effective inhibition of colony formation. The values obtained from the 24 hour clonogenic assay were in good agreement with the 72 hour proliferation assay.

W28729 [2] = test: W28729 expression in human ovarian carcinoma xenograft A2780 tumors in nude mice; format: in vivo, mouse
Method: The human ovarian carcinoma xenograft A2780s were maintained in Balb/c nu/nu nude mice. Tumors were propagated as subcutaneous (sc) transplants using tumor fragments obtained from donor mice. For the cdk2 inhibitor treatment, tumors were allowed to grow to the pre-determined size window of approximately 100-200 mg (tumors outside the range were excluded) and animals were evenly distributed to various treatment and control groups (n=6). Treatment of each animal was based on individual body weight. The cdk2 inhibitor was first dissolved in a mixture of Cremophor®/ethanol (50:50). One hour prior to administration, the cdk2 inhibitor was diluted with water so that the dosing solutions contained the specified excipient composition, i.e., Cremophor®/ethanol/water (1:1:8, v/v). The volume of all compounds injected was 0.01 ml/gm of mice. The cdk2 inhibitor was administered as a bolus injection intraperitoneal at doses of 36 and 18 mg/kg. Tumor and plasma were sampled at the time points of 4, 7, and 24 hour post treatment. Plasma sample was frozen immediately at −80° C. for pharmacokinetic analysis, and tumor sample was preserved in RNAase free buffer for pharmacogenomic analysis. The biomarker W28729 (SEQ ID NO: 1246) was selected as a preferred marker. A same-well multiplex real-time quantitative PCR assay on this biomarker with normalization control, house-keeping gene GAPDH, was developed using Taq-man MGB probes. Gene expression changes for W28729 were measured with real-time quantitative PCR assays in the following sample sets: A2780 human tumor cell line treated with 20 nM of cdk2 inhibitor for different durations (FIG. 3A), PBMC treated with 10n-M cdk2 inhibitor at 4 hours (FIG. 3B); and human ovarian carcinoma xenograft A2780 treated with cdk2 inhibitor at doses of 36 and 18 mg/kg for different durations (FIG. 3C). […] At the minimum efficacious dose (MED) of 18 mg/kg/day, the induction was sustained for more than 6 hours. In an infusion regimen using the minimum efficacious dose of 40 mg/kg, gene induction was sustained for at least 16 hours. […] Treatment with an efficacious regimen results in >2 fold induction of the sequence for 6 hours or longer. […] In addition, these observations support the use of PBMC as a surrogate tissue for monitoring changes in gene expression, that result from treatment with the cdk2 inhibitor.

W28729 [3] = test: Clinical study CA174-001 (1 hr infusion), W28729 expression in patient PBMC by RT-PCR; format: in vivo, human; settings: patients
Method: (§1) Patient inclusion criteria: The patient inclusion criteria included: primary solid malignancy refractory to current therapy and adequate bone marrow, hepatic, and renal function. Treatments: Two different treatments were undertaken: (i) 174-001 Study: 1 hr infusion of BMS-387032 q 3 wks; and (ii) 174-002 Study: 24 hr infusion of BMS-387032 q 3 wks. The sampling times were pre-dose, and 2, 6, 24 hour post-dose. W28729 Expression Analysis: RT-PCR. Patient blood samples were collected in PAXgene™ Blood Collection Tubes (Qiagen, catalog #762155). Total RNA was isolated following the manufacturer's instructions using a PAXgene™ blood RNA Kit (Qiagen, catalog #762134). W28729 and GAPDH (housekeeping gene) RNA abundance was measured by Taqman assays, using an ABI PRISM 7900 HT Sequence Detection System. W28729 abundance was normalized relative to GAPDH. Primer and probe sequences are as shown below.

W28729 [4] = test: Clinical study CA174-002 (24 hr infusion), W28729 expression in patient PBMC by RT-PCR; format: in vivo, human; settings: patients
Method: as §1

SMILES: CC(C)(C)c1cnc(CSc2cnc(NC(=O)C3CCNCC3)s2)o1 [cdk2 inhibitor, N-5-[[5-(1,1-Dimethylethyl)-2-oxazolyl]methyl]thio]-2-thiazolyl-4-piperidinecarboxamide, 0.5-L-tartaric acid salt]
- minimal exposure required for effective inhibition of colony formation ([1]; A2780s): 8 h
- growth inhibition, dependence on exposure time ([1]; A2780s, proliferation and clonogenic assays): time dependent
- pIC50 ([1]; 4 hr. exposure): 6.52
- IC90 ([1]; 4 hr. exposure): > 1000 nM
- pIC50 ([1]; 8 hr. exposure): 6.81
- IC90 ([1]; 8 hr. exposure): 303 nM
- pIC50 ([1]; 24 hr. exposure): 6.78
- IC90 ([1]; 24 hr. exposure): 208 nM
- pattern of W28729 induction in the tumors (W28729 [2]; A2780 xenografts, bolus i.p. treatments): transient, dose-dependent manner
- duration of sustained W28729 induction (W28729 [2]; A2780 xenografts, bolus i.p., MED of 18 mg/kg/day): more than 6 hours
- duration of sustained gene induction (W28729 [2]; A2780 xenografts, infusion regimen, 40 mg/kg): at least 16 hours
- induction of the sequence (W28729 [2]; efficacious regimen, for 6 hours or longer): > 2 fold
- duration of W28729 gene induction versus dose (W28729 [2]; nude mice bearing A2780 xenografts, 36 and 18 mg/kg): dose-dependent prolongation of the duration of gene induction
- induction of W28729 in tumor (W28729 [2]; nude mice bearing A2780 xenografts, efficacious doses (36 and 18 mg/kg)): induction of W28729
- time of return of W28729 to baseline levels (W28729 [3]; 1 hour infusion): ≤ 6 h
- W28729 induction in PBMC (W28729 [3]; 1 hour infusion, at 2 hours): transient induction of W28729
- relationship between W28729 gene induction and dose or exposure (AUC) (W28729 [3]; CA174-001): linear relationship
- W28729 induction in PBMC (W28729 [4]): modest induction of W28729 expression
- time W28729 induction was sustained following end of infusion (W28729 [4]): 6 h
